The text below walks through data of patent US5639773A, “Ocular hypotensive agent” (priority 1993, dated 1997).

Like-named read-outs stand apart in the source and are kept apart here. Bounds are passed on as bounds.

Data set [1] deals with Japanese albino rabbits. The experiment in a line: Action for lowering intraocular pressure in Japanese albino rabbits (Pneumatonograph). It is filed as in vivo, rabbit. To be noted: for Intraocular Pressure 30 minutes after instillation / Intraocular Pressure before instillation: 50 μl; for Intraocular Pressure 30 minutes after instillation / Intraocular Pressure before instillation / Intraocular Pressure difference: n=5; for Intraocular Pressure before instillation: baseline; for Intraocular Pressure difference: 30 minutes after vs before instillation. As to the method: (§1) The action for lowering intraocular pressure in rabbits
(§2) Male Japanese albino and pigmented rabbits having no anterior ocular abnormalities were used. One eye received 50 μl of the test drug, the other eye 50 μl of physiological saline as a control. Changes over time in ocular tension were measured. Ocular tension was measured for both eyes using a Pneumatonograph (produced by Alcon) before and 30 minutes and/or 1 hour after instillation. The test drug was (±)-1-(cyclohexyloxycarbonyloxy)ethyl 2-ethoxy-1-[[2'-(1H-tetrazol-5-yl)biphenyl-4-yl]methyl]-1H-benzimidazole-7-carboxylate (hereinafter referred to as Compound 1) as suspended in physiological saline or 0.1 w/v % polysorbate 80 to concentrations of 0.1, 0.5 and 1.0 w/v %. Also performed periodically were macroscopic observation of the anterior ocular segment and measurement of pupil diameter.

In data set [2] the test system is pigmented rabbits. The data set can be described thus: Action for lowering intraocular pressure in pigmented rabbits (Pneumatonograph). The format is in vivo, rabbit. To be noted: for Intraocular Pressure 1 hour after instillation / Intraocular Pressure 30 minutes after instillation / Intraocular Pressure before instillation: 50 μl; for Intraocular Pressure before instillation: baseline; for ocular tension (result in words): suspended in 0.1 w/v % polysorbate 80. As for the experimental part:
as §1, §2

In data set [3] the test system is Japanese albino rabbits. To be noted: rabbit, in vivo. As to the method: as §2
Data set [4] relates to anterior ocular segment of rabbits. To be noted: rabbit, in vivo. As for the experimental part: as §2
The subject of data set [5] is pigmented rabbits. To be noted: rabbit, in vivo. As for the experimental part:
as §2

In data set [6] the test system is anterior ocular segment of rabbits. To be noted: rabbit, in vivo. As for the experimental part: as §2
This is another data set of the same source.

A short description of data set [7]: Acute toxicity test, mice. To be noted: mouse, in vivo; single oral administration, 4-week-old Jcl:ICR mice (males, females). As to the method:
(§3) The LD50 of compound 1 exceeded 2,000 mg/kg, as of single oral administration, in 4-week-old Jcl:ICR mice (males, females) and 5-week-old Jcl:Wistar rats (males, females).

Data set [8] can be described thus: Acute toxicity test, rats. To be noted: rat, in vivo; single oral administration, 5-week-old Jcl:Wistar rats (males, females). As to the method:
as §3

The mark [9] stands for this setting: 0.1 w/v %, suspended in physiological saline.
Setting [10] is: 0.5 w/v %, suspended in physiological saline.
The mark [11] stands for this setting: 0.1 w/v %, suspended in 0.1 w/v % polysorbate 80, n=6.
[12] abbreviates: 1.0 w/v %, suspended in 0.1 w/v % polysorbate 80, n=7.

A word on the LD50: it is the dose at which mortality reaches 50%. Lower therefore signals a more toxic substance. With `CCOc1nc2cccc(C(=O)OC(C)OC(=O)OC3CCCCC3)c2n1Cc1ccc(-c2ccccc2-c2nnn[nH]2)cc1` (racemic) [Compound 1, (±)-1-(cyclohexyloxycarbonyloxy)ethyl 2-ethoxy-1-[[2'-(1H-tetrazol-5-yl)biphenyl-4-yl]methyl]-1H-benzimidazole-7-carboxylate], the “Intraocular Pressure 30 minutes after instillation” value in the data set on Japanese albino rabbits [1] (setting [9]) came to 16.3 ± 1.16 mmHg; in the data set on Japanese albino rabbits [1] (setting [10]) it was 16.0 ± 0.76 mmHg; in the data set on Japanese albino rabbits [1] (1.0 w/v %, suspended in physiological saline, *p < 0.05 vs before instillation), 15.0 ± 0.47 mmHg; in the data set with pigmented rabbits [2] (0.1 w/v %, suspended in 0.1 w/v % polysorbate 80, n=6, *p < 0.05 vs before instillation), 22.0 ± 0.39 mmHg; in the data set with pigmented rabbits [2] (setting [12]) it was 21.9 ± 0.81 mmHg. The “Intraocular Pressure before instillation” value in the data set on Japanese albino rabbits [1] (setting [9]) worked out at 17.8 ± 0.80 mmHg; with Japanese albino rabbits [1] (setting [10]) it was 18.2 ± 0.60 mmHg; in the data set on Japanese albino rabbits [1] (1.0 w/v %, suspended in physiological saline), 18.7 ± 0.44 mmHg; with pigmented rabbits [2] (setting [11]) it was 24.3 ± 0.25 mmHg; in the data set on pigmented rabbits [2] (setting [12]) it was 24.0 ± 0.29 mmHg. For the same compound, the “Intraocular Pressure difference” value with Japanese albino rabbits [1] (0.1 w/v %) is reported as -1.5 mmHg; in the data set on Japanese albino rabbits [1] (0.5 w/v %), -2.2 mmHg; in the data set with Japanese albino rabbits [1] (1.0 w/v %), -3.7 mmHg. Moreover, the “ocular tension (result in words)” value in the data set on Japanese albino rabbits [1] (by 30 minutes after instillation, 0.1, 0.5 and 1.0 w/v %, suspended in physiological saline) is on record as “fell dose-dependently”; with pigmented rabbits [2] (0.1 w/v %, 30 minutes after instillation), “fell greatly”; in the data set with pigmented rabbits [2] (1.0 w/v %, one hour after instillation), “fell greatly”. Moreover, the “Intraocular Pressure 1 hour after instillation” value with pigmented rabbits [2] (setting [11]) turned out to be 23.6 ± 0.33 mmHg; in the data set on pigmented rabbits [2] (1.0 w/v %, suspended in 0.1 w/v % polysorbate 80, n=7, **p < 0.001 vs before instillation), 21.4 ± 0.43 mmHg. In addition, the “change in pupil diameter” value in the data set with Japanese albino rabbits [3] and with pigmented rabbits [5] was “Nor was there any change in pupil diameter” each time. Also, the “macroscopic abnormalities in the anterior ocular segment” value in data set [4] and in data set [6] was “no macroscopic abnormalities were noted” in each case. Besides, the LD50 in data set [7] and in data set [8] was > 2000 mg/kg each time.
